This is an account of results in PubChem BioAssay (NCI).

Among the test systems are MDA-MB-231 breast; A549 NSCLC; OVCAR-5 ovarian; UACC-257 melanoma; SF-268 CNS; NCI-H226 lung; RPMI-8226 leukemia; NCI-H460 lung; MCF7 breast; HCC-2998 colon.
What all share (test): NCI-60 cell line screen, 48 h

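These data come from cells grown in 96-well plates and exposed to compound for 48 hours at five concentrations. GI50: concentration for 50% inhibition of growth. The concentration for full growth arrest is given as TGI.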 Bounds are passed on as bounds.

`c1ccc2[nH]c(-c3ccc(NN=Nc4ccncc4)cc3)nc2c1`: the GI50 in the test on MDA-MB-231 breast was above 100 µM; in the test on A549 NSCLC it was above 100 µM; in the test on OVCAR-5 ovarian, above 100 µM; with UACC-257 melanoma, above 100 µM; in the test on SF-268 CNS, 4.81 µM; with NCI-H226 lung, above 100 µM. The GI50 with RPMI-8226 leukemia is 6.3 µM; in the test on NCI-H460 lung, 2.46 µM. Moreover, the TGI in the test with MDA-MB-231 breast was above 100 µM; in the test on A549 NSCLC, above 100 µM; with OVCAR-5 ovarian, above 100 µM; in the test on UACC-257 melanoma, above 100 µM; in the test on SF-268 CNS, 74.4 µM; in the test on NCI-H226 lung, above 100 µM. The figures for the TGI in the test with RPMI-8226 leukemia and with NCI-H460 lung were 38.4 µM and above 100 µM, respectively.

Regarding `CCn1c(CN2CCN(Cc3ccccc3)CC2)nc2cc(NC(=O)c3cccs3)ccc21`, the GI50 in the test on MDA-MB-231 breast is 16.9 µM; in the test with OVCAR-5 ovarian, 17 µM; in the test with SF-268 CNS, 25.4 µM; with NCI-H226 lung it was 15.2 µM; in the test on MCF7 breast it was 19.5 µM; in the test with RPMI-8226 leukemia, 15.8 µM. The GI50 in the test on NCI-H460 lung is 18.7 µM; in the test on HCC-2998 colon it was 17.3 µM. The TGI in the test with MDA-MB-231 breast was above 100 µM; in the test with OVCAR-5 ovarian it was 63.3 µM; with SF-268 CNS it was 97.9 µM; with NCI-H226 lung, 41.5 µM; with MCF7 breast, 59.9 µM; in the test with RPMI-8226 leukemia, 46.1 µM. The TGI with NCI-H460 lung was found to be 42.5 µM; in the test with HCC-2998 colon, 35.6 µM.

As to `O=C(Nc1cccc(Cl)c1)c1ccc(NC2=C(Cl)C(=O)N(Cc3ccccc3)C2=O)cc1`, the GI50 with MDA-MB-231 breast is 8.08 µM; in the test with A549 NSCLC, 33.3 µM; with OVCAR-5 ovarian it was 24.8 µM; with UACC-257 melanoma it was 21.3 µM; in the test with SF-268 CNS it was 8.93 µM; in the test on NCI-H226 lung, 14.8 µM. For the same compound, the GI50 in the test on MCF7 breast is 3.19 µM; with NCI-H460 lung, 9.11 µM; in the test with HCC-2998 colon it was 1.68 µM. Besides, the TGI is 31.9 µM in the test with MDA-MB-231 breast; above 100 µM in the test on A549 NSCLC; above 61.6 µM in the test on OVCAR-5 ovarian; 49.7 µM in the test with UACC-257 melanoma; 25.3 µM in the test on SF-268 CNS; 31 µM in the test with NCI-H226 lung. For the same compound, the TGI with MCF7 breast is 12.2 µM; in the test on NCI-H460 lung, above 50.9 µM; in the test on HCC-2998 colon, 3.83 µM.

Regarding `COc1c(OC)c(OC)c2c(c1OC)c(=O)c1ccccc1n2C`, the TGI with MDA-MB-231 breast, with A549 NSCLC, with OVCAR-5 ovarian, in the test with UACC-257 melanoma, in the test on SF-268 CNS and in the test with NCI-H226 lung was above 100 µM in each case. The TGI in the test on MCF7 breast, in the test on RPMI-8226 leukemia and in the test on HCC-2998 colon was above 100 µM in each case.

Turning to `Clc1cc(Cc2cc(Cl)c(Cl)c3c2OCOC3)c2c(c1Cl)COCO2`, the TGI with A549 NSCLC is above 100 µM; in the test with OVCAR-5 ovarian it was above 100 µM; in the test with UACC-257 melanoma, above 100 µM; with SF-268 CNS, above 100 µM; in the test with NCI-H226 lung, 72.9 µM; in the test with RPMI-8226 leukemia it was above 100 µM. The TGI with NCI-H460 lung and in the test with HCC-2998 colon was above 100 µM in each case.

Take `O=c1c2ccccc2n(C[C@H]2CO2)c2ccccc12`: the GI50 is 2.07 µM with MDA-MB-231 breast; 2.45 µM in the test with A549 NSCLC; 2.44 µM in the test with OVCAR-5 ovarian; 2.1 µM with UACC-257 melanoma; 1.62 µM in the test on SF-268 CNS; 0.39 µM with MCF7 breast. Besides, the results for the GI50 in the test on RPMI-8226 leukemia, in the test on NCI-H460 lung and with HCC-2998 colon were 1.94 µM, 1.7 µM and 1.51 µM, respectively. The TGI worked out at 5.24 µM in the test with MDA-MB-231 breast; 7.28 µM in the test with A549 NSCLC; 6.41 µM in the test on OVCAR-5 ovarian; 4.46 µM with UACC-257 melanoma; 5.97 µM with SF-268 CNS; 2.98 µM in the test on MCF7 breast. Moreover, the TGI was found to be 6.55 µM with RPMI-8226 leukemia, 4.43 µM with NCI-H460 lung and 3.44 µM in the test with HCC-2998 colon.

As for `CCC/C(=N/NC(=O)C(N)=O)C(CC)C(=O)CCC(=O)N(Cc1ccccc1)Cc1ccccc1` (configuration not stated), the TGI in the test on A549 NSCLC, in the test with OVCAR-5 ovarian, with UACC-257 melanoma, in the test on SF-268 CNS, in the test with NCI-H226 lung and with RPMI-8226 leukemia was above 100 µM throughout. Besides, the TGI with NCI-H460 lung and with HCC-2998 colon was above 100 µM in each case.

As to `N#C/C(=C/c1ccc[nH]1)P(=O)(O)O`, the TGI in the test with A549 NSCLC, in the test on OVCAR-5 ovarian, in the test on UACC-257 melanoma, in the test on SF-268 CNS, in the test with NCI-H226 lung and in the test on RPMI-8226 leukemia was above 100 µM throughout. In addition, the TGI with NCI-H460 lung and in the test with HCC-2998 colon was above 100 µM each time.

In the case of `COC(=O)/C([Se]c1c(C)cc(C)cc1C)=C(\[Se]c1c(C)cc(C)cc1C)C(=O)OC`, the TGI in the test on A549 NSCLC, in the test on OVCAR-5 ovarian, in the test on UACC-257 melanoma, in the test with SF-268 CNS, in the test with NCI-H226 lung and with RPMI-8226 leukemia was above 100 µM in each case. The TGI with NCI-H460 lung and in the test with HCC-2998 colon was above 100 µM throughout.

Turning to `CC(C)c1ccc(C2C3=C(N=C4SCC(=O)N42)C(=O)c2ccccc23)cc1` (configuration not stated), the TGI in the test on A549 NSCLC, with OVCAR-5 ovarian, in the test with UACC-257 melanoma, in the test on SF-268 CNS, in the test with NCI-H226 lung and in the test with RPMI-8226 leukemia was above 100 µM each time. The TGI with NCI-H460 lung and in the test with HCC-2998 colon was above 100 µM throughout.

With `C[S+](C)CCOC(=O)C(=[N+]=[N-])c1ccc([N+](=O)[O-])cc1`, the TGI with A549 NSCLC, with OVCAR-5 ovarian, in the test with UACC-257 melanoma, with SF-268 CNS, in the test with NCI-H226 lung and with RPMI-8226 leukemia was above 100 µM each time. The TGI in the test with NCI-H460 lung and with HCC-2998 colon was above 100 µM each time.

For `Fc1ccc2c(c1)c(-c1nc(-c3c[nH]c4ncccc34)cs1)cn2CCCN1CCCCC1`, the GI50 is 1.69 µM with MDA-MB-231 breast; 1.91 µM with A549 NSCLC; 1.61 µM in the test with OVCAR-5 ovarian; 1.92 µM in the test on UACC-257 melanoma; 1.64 µM in the test with SF-268 CNS; 1.7 µM in the test on HCC-2998 colon. In addition, the TGI is 3.18 µM with MDA-MB-231 breast; 3.62 µM with A549 NSCLC; 3.1 µM in the test on OVCAR-5 ovarian; 3.7 µM in the test on UACC-257 melanoma; 3.42 µM with SF-268 CNS; 3.14 µM in the test on HCC-2998 colon.
